In US20240408085A1, “COMPOUND FOR DEGRADATION OF BCL-2 FAMILY PROTEINS AND MEDICAL APPLICATION THEREOF” (XIZANG HAISCO PHARMACEUTICAL CO., LTD., priority 2021, published 2024):

The compounds below were run on MOLT-4 cells (assay: Cell proliferation activity in MOLT-4 cells (72 h, cell viability luminescence)). Conditions: Homo sapiens, read-out: IC50 for the inhibition of MOLT-4 cell proliferation.
Format: cell-based, human
Method: MOLT-4 cells are acute lymphoblastic leukemia cell lines in humans. The cells were purchased from ATCC. Culture conditions: RPMI-1640+10% FBS+1% penicillin-streptomycin solution. The cells were cultured in a 37° C., 5% CO2 incubator. The cells were plated in a 96-well plate, with 5×10^3 cells/well. After plating, compounds at different concentrations were added and cultured in a 37° C., 5% CO2 incubator for 72 h. After the completion of culture, a reagent (Promega, G7573) for detecting the cell viability was added. The mixture was uniformly mixed for 2 minutes and then incubated at room temperature for 10 minutes. The luminescence signal was detected with a multimode plate reader (BMG, PHERAstar FSX). The luminescence readings were processed using GraphPad Prism 8.0 software and the IC50 values of the compounds for the inhibition of cell proliferation and the maximum inhibition rate were calculated according to formula (2) and formula (3), respectively, wherein Tadministration denotes the cell signal readings obtained after incubation with the compounds for 72 h, and Tvehicle denotes the cell signal readings obtained after incubation with the vehicle control for 72 h.
Calculation of Max inhibition %: after the processing according to formula (2), the inhibition rate of the compounds at the highest concentration was calculated.

| SMILES | IC50 [nM] |
| --- | --- |
| Cc1ncsc1-c1ccc([C@H](C)NC(=O)[C@@H]2C[C@@H](O)CN2C(=O)[C@@H](NC(=O)CCCCCCC(=O)N2C[C@H]3CN(CC[C@H](CSc4ccccc4)Nc4ccc(S(=O)(=O)NC(=O)c5ccc(N6CCN(CC7=C(c8ccc(Cl)cc8F)CCC8(CC8)C7)CC6)cc5)cc4S(=O)(=O)C(F)(F)F)C[C@H]3C2)C(C)(C)C)cc1 [Compound 23, cis-(2S,4R)-1-((S)-2-(8-(5-((R)-3-((4-(N-(4-(4-((6-(4-chloro-2-fluorophenyl)spiro[2.5]oct-5-en-5-yl)methyl)piperazin-1-yl)benzoyl)sulfamoyl)-2-((trifluoromethyl)sulfonyl)phenyl)amino)-4-(phenylthio)butyl)hexahydropyrrolo[3,4-c]pyrrol-2(1H)-yl)-8-oxooctanamido)-3,3-dimethylbutanoyl)-4-hydroxy-N—((S)-1-(4-(4-methylthiazol-5-yl)phenyl)ethyl)pyrrolidine-2-carboxamide] | < 500 |
| Cc1ncsc1-c1ccc([C@H](C)NC(=O)[C@@H]2C[C@@H](O)CN2C(=O)[C@@H](NC(=O)CCCCCCC(=O)N2CCN(CC[C@H](CSc3ccccc3)Nc3ccc(S(=O)(=O)NC(=O)c4ccc(N5CCN(CC6=C(c7ccc(Cl)cc7F)CCC(C)(C)C6)CC5)cc4)cc3S(=O)(=O)C(F)(F)F)CC2)C(C)(C)C)cc1 [Compound 24, (2S,4R)-1-((S)-2-(8-(4-((R)-3-((4-(N-(4-(4-((4′-chloro-2′-fluoro-4,4-dimethyl-3,4,5,6-tetrahydro-[1,1′-biphenyl]-2-yl)methyl)piperazin-1-yl)benzoyl)sulfamoyl)-2-((trifluoromethyl)sulfonyl)phenyl)amino)-4-(phenylthio)butyl)piperazin-1-yl)-8-oxooctanamido)-3,3-dimethylbutanoyl)-4-hydroxy-N—((S)-1-(4-(4-methylthiazol-5-yl)phenyl)ethyl)pyrrolidine-2-carboxamide] | < 500 |
| Cc1ncsc1-c1ccc([C@H](C)NC(=O)[C@@H]2C[C@@H](O)CN2C(=O)[C@@H](NC(=O)CCCCCCC(=O)N2C[C@@H]3C[C@H]2CN3CC[C@H](CSc2ccccc2)Nc2ccc(S(=O)(=O)NC(=O)c3ccc(N4CCN(CC5=C(c6ccc(Cl)cc6)CCC(C)(C)C5)CC4)cc3)cc2S(=O)(=O)C(F)(F)F)C(C)(C)C)cc1 [Compound 25, (2S,4R)-1-((S)-2-(8-((1S,4S)-5-((R)-3-((4-(N-(4-(4-((4′-chloro-4,4-dimethyl-3,4,5,6-tetrahydro-[1,1′-biphenyl]-2-yl)methyl)piperazin-1-yl)benzoyl)sulfamoyl)-2-((trifluoromethyl)sulfonyl)phenyl)amino)-4-(phenylthio)butyl)-2,5-diazabicyclo[2.2.1]heptan-2-yl)-8-oxooctanamido)-3,3-dimethylbutanoyl)-4-hydroxy-N—((S)-1-(4-(4-methylthiazol-5-yl)phenyl)ethyl)pyrrolidine-2-carboxamide] | < 500 |
| Cc1ncsc1-c1ccc([C@H](C)NC(=O)[C@@H]2C[C@@H](O)CN2C(=O)[C@@H](NC(=O)CCCCCC(=O)N2C[C@]3(C)CN(CC[C@H](CSc4ccccc4)Nc4ccc(S(=O)(=O)NC(=O)c5ccc(N6CCN(CC7=C(c8ccc(Cl)cc8)CCC(C)(C)C7)CC6)cc5)cc4S(=O)(=O)C(F)(F)F)C[C@]3(C)C2)C(C)(C)C)cc1 [Compound 26, cis-(2S,4R)-1-((S)-2-(7-(5-((R)-3-((4-(N-(4-(4-((4′-chloro-4,4-dimethyl-3,4,5,6-tetrahydro-[1,1′-biphenyl]-2-yl)methyl)piperazin-1-yl)benzoyl)sulfamoyl)-2-((trifluoromethyl)sulfonyl)phenyl)amino)-4-(phenylthio)butyl)-3a,6a-dimethylhexahydropyrrolo[3,4-c]pyrrol-2(1H)-yl)-7-oxoheptanamido)-3,3-dimethylbutanoyl)-4-hydroxy-N—((S)-1-(4-(4-methylthiazol-5-yl)phenyl)ethyl)pyrrolidine-2-carboxamide] | < 500 |
| Cc1ncsc1-c1ccc([C@H](C)NC(=O)[C@@H]2C[C@@H](O)CN2C(=O)[C@@H](NC(=O)CCCCCC(=O)N2C[C@@H]3C[C@H]2CN3CC[C@H](CSc2ccccc2)Nc2ccc(S(=O)(=O)NC(=O)c3ccc(N4CCN(CC5=C(c6ccc(Cl)cc6)CCC6(CC6)C5)CC4)cc3)cc2S(=O)(=O)C(F)(F)F)C(C)(C)C)cc1 [Compound 27, (2S,4R)-1-((S)-2-(7-((1S,4S)-5-((R)-3-((4-(N-(4-(4-((6-(4-chlorophenyl)spiro[2.5]oct-5-en-5-yl)methyl)piperazin-1-yl)benzoyl)sulfamoyl)-2-((trifluoromethyl)sulfonyl)phenyl)amino)-4-(phenylthio)butyl)-2,5-diazabicyclo[2.2.1]heptan-2-yl)-7-oxoheptanamido)-3,3-dimethylbutanoyl)-4-hydroxy-N—((S)-1-(4-(4-methylthiazol-5-yl)phenyl)ethyl)pyrrolidine-2-carboxamide] | < 500 |
| Cc1ncsc1-c1ccc([C@H](C)NC(=O)[C@@H]2C[C@@H](O)CN2C(=O)[C@@H](NC(=O)CCCCCCC(=O)N2C[C@@H]3C[C@H]2CN3CC[C@H](CSc2ccccc2)Nc2ccc(S(=O)(=O)NC(=O)c3ccc(N4CCN(CC5=C(c6ccc(Cl)cc6)CCC6(CC6)C5)CC4)cc3)cc2S(=O)(=O)C(F)(F)F)C(C)(C)C)cc1 [Compound 28, (2S,4R)-1-((S)-2-(8-((1S,4S)-5-((R)-3-((4-(N-(4-(4-((6-(4-chlorophenyl)spiro[2.5]oct-5-en-5-yl)methyl)piperazin-1-yl)benzoyl)sulfamoyl)-2-((trifluoromethyl)sulfonyl)phenyl)amino)-4-(phenylthio)butyl)-2,5-diazabicyclo[2.2.1]heptan-2-yl)-8-oxooctanamido)-3,3-dimethylbutanoyl)-4-hydroxy-N—((S)-1-(4-(4-methylthiazol-5-yl)phenyl)ethyl)pyrrolidine-2-carboxamide] | < 500 |
| Cc1ncsc1-c1ccc([C@H](C)NC(=O)[C@@H]2C[C@@H](O)CN2C(=O)[C@@H](NC(=O)CCCCCC(=O)N2C[C@@H]3C[C@H]2CN3CC[C@H](CSc2ccccc2)Nc2ccc(S(=O)(=O)NC(=O)c3ccc(N4CCN(CC5=C(c6ccc(Cl)cc6F)CCC6(CC6)C5)CC4)cc3)cc2S(=O)(=O)C(F)(F)F)C(C)(C)C)cc1 [Compound 29, (2S,4R)-1-((S)-2-(7-((1S,4S)-5-((R)-3-((4-(N-(4-(4-((6-(4-chloro-2-fluorophenyl)spiro[2.5]oct-5-en-5-yl)methyl)piperazin-1-yl)benzoyl)sulfamoyl)-2-((trifluoromethyl)sulfonyl)phenyl)amino)-4-(phenylthio)butyl)-2,5-diazabicyclo[2.2.1]heptan-2-yl)-7-oxoheptanamido)-3,3-dimethylbutanoyl)-4-hydroxy-N—((S)-1-(4-(4-methylthiazol-5-yl)phenyl)ethyl)pyrrolidine-2-carboxamide] | < 500 |
| Cc1ncsc1-c1ccc([C@H](C)NC(=O)[C@@H]2C[C@@H](O)CN2C(=O)[C@@H](NC(=O)CCCCCCC(=O)N2C[C@@H]3C[C@H]2CN3CC[C@H](CSc2ccccc2)Nc2ccc(S(=O)(=O)NC(=O)c3ccc(N4CCN(CC5=C(c6ccc(Cl)cc6F)CCC6(CC6)C5)CC4)cc3)cc2S(=O)(=O)C(F)(F)F)C(C)(C)C)cc1 [Compound 30, (2S,4R)-1-((S)-2-(8-((1S,4S)-5-((R)-3-((4-(N-(4-(4-((6-(4-chloro-2-fluorophenyl)spiro[2.5]oct-5-en-5-yl)methyl)piperazin-1-yl)benzoyl)sulfamoyl)-2-((trifluoromethyl)sulfonyl)phenyl)amino)-4-(phenylthio)butyl)-2,5-diazabicyclo[2.2.1]heptan-2-yl)-8-oxooctanamido)-3,3-dimethylbutanoyl)-4-hydroxy-N—((S)-1-(4-(4-methylthiazol-5-yl)phenyl)ethyl)pyrrolidine-2-carboxamide] | < 500 |
| Cc1ncsc1-c1ccc([C@H](C)NC(=O)[C@@H]2C[C@@H](O)CN2C(=O)[C@@H](NC(=O)CCCCCC(=O)N2CCN(CC[C@H](CSc3ccccc3)Nc3ccc(S(=O)(=O)NC(=O)c4ccc(N5CCN(CC6=C(c7ccc(Cl)cc7F)CCC7(CC7)C6)CC5)cc4)cc3S(=O)(=O)C(F)(F)F)CC2)C(C)(C)C)cc1 [Compound 31, (2S,4R)-1-((S)-2-(7-(4-((R)-3-((4-(N-(4-(4-((6-(4-chloro-2-fluorophenyl)spiro[2.5]oct-5-en-5-yl)methyl)piperazin-1-yl)benzoyl)sulfamoyl)-2-((trifluoromethyl)sulfonyl)phenyl)amino)-4-(phenylthio)butyl)piperazin-1-yl)-7-oxoheptanamido)-3,3-dimethylbutanoyl)-4-hydroxy-N—((S)-1-(4-(4-methylthiazol-5-yl)phenyl)ethyl)pyrrolidine-2-carboxamide] | < 500 |

Same assay, conditions: read-out: IC50 for the inhibition of MOLT-4 cell proliferation

| SMILES | IC50 [nM] |
| --- | --- |
| Cc1ncsc1-c1ccc([C@H](C)NC(=O)[C@@H]2C[C@@H](O)CN2C(=O)[C@@H](NC(=O)CCCCCCC(=O)N2CCN(CC[C@H](CSc3ccccc3)Nc3ccc(S(=O)(=O)NC(=O)c4ccc(N5CCN(CC6=C(c7ccc(Cl)cc7F)CCC7(CC7)C6)CC5)cc4)cc3S(=O)(=O)C(F)(F)F)CC2)C(C)(C)C)cc1 [Compound 32, (2S,4R)-1-((S)-2-(8-(4-((R)-3-((4-(N-(4-(4-((6-(4-chloro-2-fluorophenyl)spiro[2.5]oct-5-en-5-yl)methyl)piperazin-1-yl)benzoyl)sulfamoyl)-2-((trifluoromethyl)sulfonyl)phenyl)amino)-4-(phenylthio)butyl)piperazin-1-yl)-8-oxoheptanamido)-3,3-dimethylbutanoyl)-4-hydroxy-N—((S)-1-(4-(4-methylthiazol-5-yl)phenyl)ethyl)pyrrolidine-2-carboxamide] | < 500 |
